Laboratory results published in the supplement of paper PMC10307832.

How the values were obtained:
Assay in all cases: relative viability (nuclei count vs DMSO), 5 days (fraction); higher = more cells survive
[1] = compound: Cc1ccc2nc(NCCN)c3ncc(C)n3c2c1 + C[C@]1(O)C[C@@H](c2nc(-c3ccc4ccc(-c5ccccc5)nc4c3)c3c(N)nccn32)C1 [Linsitinib] (partner 1 µM)
Outline: (§1)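 Relative viability equals treated-well nuclei counts divided by vehicle-well nuclei counts. Counts came from 4× images of lung cancer cell lines grown in 1536-well plates for 5 days after pin-tool dosing on the day after seeding. Dosing used one drug alone or a fixed anchor-drug dose plus five library-drug doses (not always all listed) in √10 steps, and values are medians of duplicate plates.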

[2] = compound: Cc1ccc2nc(NCCN)c3ncc(C)n3c2c1 + Cc1nc(Nc2ncc(C(=O)Nc3c(C)cccc3Cl)s2)cc(N2CCN(CCO)CC2)n1 [Dasatinib] (partner 0.075 µM)
Outline: as §1

[3] = compound: Cc1ccc2nc(NCCN)c3ncc(C)n3c2c1 + Nc1nc2[nH]cc(CCc3ccc(C(=O)N[C@@H](CCC(=O)O)C(=O)O)cc3)c2c(=O)[nH]1 [Pemetrexed] (partner 0.2 µM)
Outline: as §1

Salubrinal + Lapatinib = compound: O=C(/C=C/c1ccccc1)NC(NC(=S)Nc1cccc2cccnc12)C(Cl)(Cl)Cl [Salubrinal] + CS(=O)(=O)CCNCc1ccc(-c2ccc3ncnc(Nc4ccc(OCc5cccc(F)c5)c(Cl)c4)c3c2)o1 [Lapatinib] (partner 2 µM)
Outline: as §1

Cell Line	relative viability ([1]; first compound 0.04 µM)	relative viability ([1]; first compound 0.1265 µM)	relative viability ([1]; first compound 0.4 µM)	relative viability ([1]; first compound 1.265 µM)	relative viability ([1]; first compound 4 µM)	relative viability ([2]; first compound 0.04 µM)	relative viability ([2]; first compound 0.1265 µM)	relative viability ([2]; first compound 0.4 µM)	relative viability ([2]; first compound 1.265 µM)	relative viability ([2]; first compound 4 µM)	relative viability ([3]; first compound 0.04 µM)	relative viability ([3]; first compound 0.1265 µM)	relative viability ([3]; first compound 0.4 µM)	relative viability ([3]; first compound 1.265 µM)	relative viability ([3]; first compound 4 µM)	relative viability (Salubrinal + Lapatinib; first compound 0.08 µM)	relative viability (Salubrinal + Lapatinib; first compound 0.253 µM)	relative viability (Salubrinal + Lapatinib; first compound 0.8 µM)	relative viability (Salubrinal + Lapatinib; first compound 2.53 µM)	relative viability (Salubrinal + Lapatinib; first compound 8 µM)
NCI-H23	0.746	0.489	0.55	0.611	0.576	0.934	0.798	0.73	0.779	0.728	0.666	0.691	0.741	0.641	0.581	1.08	1.1	1.34	0.955	1.36
NCI-H322M	0.889	0.907	0.857	0.79	0.899	0.251	0.267	0.259	0.269	0.263	0.654	0.621	0.62	0.634	0.647	0.606	0.589	0.669	0.657	0.517
NCI-H358	0.755	0.769	0.694	0.88	0.665	0.177	0.157	0.182	0.154	0.22	0.185	0.165	0.166	0.178	0.192	0.531	0.514	0.365	0.494	0.47
NCI-H460	0.759	0.735	0.751	0.692	0.642	0.448	0.546	0.613	0.499	0.468	0.0612	0.0659	0.065	0.0654	0.0753	1.6	0.445	1.76	0.948	0.75
NCI-H520	0.997	1.15	0.947	0.884	0.853	0.363	0.208	0.229	0.284	0.262	0.655	0.62	0.651	0.687	0.574	0.921	0.767	1.25	0.847	0.769
NCI-H596	1.26	1.02	0.869	1.03	1.03	0.677	0.645	0.524	0.524	0.648	0.484	0.447	0.506	0.515	0.49	1.05	1.02	1.21	1.08	0.887
NCI-H647	1.34	1.15	1.22	1.08	1.18	0.172	0.191	0.163	0.169	0.141	0.179	0.158	0.243	0.221	0.243	1.31	0.687	1.31	1.2	0.829
NCI-H650	0.852	0.828	0.994	0.911	0.69	0.49	0.449	0.464	0.431	0.448	0.999	0.976	0.827	1.01	0.851	0.696	0.84	1.42	1.05	0.822
NCI-H661	0.644	0.511	0.449	–	0.543	0.927	0.943	0.88	0.835	0.748	0.909	0.949	0.958	0.891	0.868	0.609	0.497	0.248	0.467	0.412
NCI-H838	1.01	0.956	0.964	0.995	0.97	0.347	0.336	0.251	0.231	0.261	0.277	0.247	0.252	0.302	0.419	1.1	0.914	1.23	1.03	0.674
NCI-H1355	0.811	0.825	0.814	0.771	0.719	0.712	0.728	0.678	0.667	0.638	1.05	1.16	0.987	1.03	0.971	1.09	1.03	0.996	1.01	1.03
NCI-H1395	1	0.955	1.02	1.07	0.955	0.48	0.425	0.374	0.37	0.407	0.881	0.995	0.855	0.697	0.56	0.953	0.973	1.2	0.819	0.858
NCI-H1437	0.991	0.932	1.03	0.936	0.821	0.379	0.419	0.438	0.399	0.351	0.304	0.312	0.332	0.296	0.35	0.925	0.763	0.94	0.878	0.653
NCI-H1563	1.31	1.02	1.1	1.39	1.21	0.459	0.488	0.539	0.433	0.454	0.861	0.78	0.877	0.718	0.705	0.992	1.05	0.975	0.886	0.882
NCI-H1651	0.982	0.837	0.982	0.928	0.795	0.472	0.441	0.422	0.395	0.392	0.578	0.639	0.647	0.591	0.502	1.01	0.77	1.07	–	0.816
NCI-H1666	0.909	0.843	0.942	0.822	0.71	0.788	0.781	0.849	0.604	0.77	0.965	0.817	0.84	0.736	0.795	0.582	0.56	0.767	0.58	0.691
